Reference: patent US6552086B1, “Sulfonamide derivatives” (Eli Lilly and Company, priority 1998, dated 2003)

Molecular target: T1, human GluR4B receptor (Homo sapiens, UniProt P48058)
T1 construct: expressed in transfected cells
Assay: Potentiation of agonist-induced excitability of human GluR4B expressed in HEK 293 cells
Type: cell-based
Conditions: human GluR4B receptor expressed in HEK 293 cells
Text: The ability of compounds of formula I to potentiate glutamate receptor-mediated response may be determined using fluorescent calcium indicator dyes (Molecular Probes, Eugene, Oreg., Fluo-3) and by measuring glutamate-evoked efflux of calcium into GluR4 transfected HEK293 cells, as described in more detail below.
In one test, 96 well plates containing confluent monolayers of HEK cells stably expressing human GluR4B (obtained as described in European Patent Application Publication Number EP-A1-583917) are prepared. The tissue culture medium in the wells is then discarded, and the wells are each washed once with 200 μl of buffer (glucose, 10 mM, sodium chloride, 138 mM, magnesium chloride, 1 mM, potassium chloride, 5 mM, calcium chloride, 5 mM, N-[2-hydroxyethyl]-piperazine-N-[2-ethanesulfonic acid], 10 mM, to pH 7.1 to 7.3). […]
Each test is then performed as follows. […] A second fluorescent reading is taken after 5 minutes incubation. 15 μl of 400 μM glutamate solution is then added to each well (final glutamate concentration 100 μM), and a third reading is taken. The activities of test compounds and cyclothiazide solutions are determined by subtracting the second from the third reading (fluorescence due to addition of glutamate in the presence or absence of test compound or cyclothiazide) and are expressed relative to enhance fluorescence produced by 100 μM cyclothiazide.

T1 sequence (P48058 21-902): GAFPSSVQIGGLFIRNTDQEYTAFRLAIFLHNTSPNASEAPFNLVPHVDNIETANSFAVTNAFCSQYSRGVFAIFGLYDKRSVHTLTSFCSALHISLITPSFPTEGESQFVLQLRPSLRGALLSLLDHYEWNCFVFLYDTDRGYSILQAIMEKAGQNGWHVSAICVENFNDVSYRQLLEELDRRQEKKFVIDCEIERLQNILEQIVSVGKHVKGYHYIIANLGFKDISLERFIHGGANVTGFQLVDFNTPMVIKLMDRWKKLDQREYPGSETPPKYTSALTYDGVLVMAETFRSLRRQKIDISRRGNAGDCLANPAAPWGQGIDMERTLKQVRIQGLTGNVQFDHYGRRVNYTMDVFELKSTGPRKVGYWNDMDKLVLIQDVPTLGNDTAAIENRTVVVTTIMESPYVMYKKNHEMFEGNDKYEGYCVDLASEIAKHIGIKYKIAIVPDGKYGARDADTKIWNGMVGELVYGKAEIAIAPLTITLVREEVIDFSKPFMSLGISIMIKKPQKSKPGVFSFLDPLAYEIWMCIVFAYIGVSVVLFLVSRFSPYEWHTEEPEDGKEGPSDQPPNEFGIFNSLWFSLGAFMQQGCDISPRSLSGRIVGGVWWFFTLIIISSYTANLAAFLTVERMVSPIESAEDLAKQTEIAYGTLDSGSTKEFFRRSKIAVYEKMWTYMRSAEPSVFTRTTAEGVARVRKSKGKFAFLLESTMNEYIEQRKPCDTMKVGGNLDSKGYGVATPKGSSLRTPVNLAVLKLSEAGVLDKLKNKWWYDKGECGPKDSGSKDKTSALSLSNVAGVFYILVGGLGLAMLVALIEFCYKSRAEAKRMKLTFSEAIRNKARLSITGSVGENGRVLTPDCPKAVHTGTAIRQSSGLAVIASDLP

`NS(=O)(=O)c1cc2c(cc1Cl)NC(C1CC3C=CC1C3)NS2(=O)=O` (stereo not shown) [cyclothiazide] was tested, and the “potentiation of agonist-induced excitability” value was “potentiate”.
